Data: the NIST ThermoML archive (doi:10.1021/je4005323)
Numbers after ± are expanded uncertainties.

Details: Liquid; for speed of sound: Pulse-echo method; for mass density: Vibrating tube method

CCCCC/C=C\C/C=C\CCCCCCCC(=O)OC [methyl (Z,Z)-9,12-octadecadienate]
Details	mass density, 343.15 K [kg/m3]	mass density, 353.15 K [kg/m3]	mass density, 363.15 K [kg/m3]	mass density, 373.15 K [kg/m3]	mass density, 383.15 K [kg/m3]	mass density, 393.15 K [kg/m3]	speed of sound, 343.15 K [m/s]	speed of sound, 363.15 K [m/s]	speed of sound, 383.15 K [m/s]	speed of sound, 393.15 K [m/s]
101.3 kPa	–	841.8 ± 0.6	834.7 ± 0.6	826.5 ± 0.6	819.3 ± 0.6	811.9 ± 0.6	–	1180.3 ± 2.7	1118.2 ± 2.6	1088 ± 2.5
10000 kPa	–	849.3 ± 0.6	842.2 ± 0.6	835.3 ± 0.6	828.2 ± 0.6	820.9 ± 0.6	–	1237 ± 2.8	1178.7 ± 2.7	1150.9 ± 2.6
20000 kPa	–	856.2 ± 0.6	849.5 ± 0.6	842.9 ± 0.6	836.2 ± 0.6	829.3 ± 0.6	–	1288.6 ± 2.9	1233.8 ± 2.8	1207.3 ± 2.7
30000 kPa	–	862.8 ± 0.6	856.4 ± 0.6	849.9 ± 0.6	843.5 ± 0.6	837 ± 0.6	–	1336.6 ± 3	1283.1 ± 2.9	1258.5 ± 2.8
40000 kPa	–	868.9 ± 0.7	862.6 ± 0.7	856.4 ± 0.7	850.2 ± 0.7	844.1 ± 0.7	–	1381.1 ± 3.1	1329 ± 3	1304.7 ± 2.9
50000 kPa	–	874.6 ± 0.7	868.4 ± 0.7	862.4 ± 0.7	856.8 ± 0.7	850.5 ± 0.7	–	1422.6 ± 3.1	1372.3 ± 3	1348.4 ± 3
60000 kPa	–	879.9 ± 0.7	873.9 ± 0.7	868.3 ± 0.7	862.7 ± 0.7	856.7 ± 0.7	–	1462.6 ± 3.2	1413.2 ± 3.1	1389.4 ± 3.1
70000 kPa	–	885.2 ± 0.7	879.1 ± 0.7	873.9 ± 0.7	868.2 ± 0.7	862.4 ± 0.8	–	1500.2 ± 3.3	1452.3 ± 3.2	1428.7 ± 3.1
80000 kPa	895.7 ± 0.7	890 ± 0.7	884.1 ± 0.7	879.3 ± 0.8	873.5 ± 0.8	867.9 ± 0.8	1583.9 ± 3.4	1536.1 ± 3.3	1489.5 ± 3.2	1466.7 ± 3.2
90000 kPa	900.3 ± 0.7	894.7 ± 0.8	889 ± 0.8	884.3 ± 0.8	878.7 ± 0.8	873 ± 0.8	1616.7 ± 3.5	1570.2 ± 3.4	1525.2 ± 3.3	1503.1 ± 3.3
100000 kPa	904.7 ± 0.8	899.3 ± 0.8	893.9 ± 0.8	889.1 ± 0.8	883.9 ± 0.8	878.1 ± 0.8	1648.6 ± 5.2	1602.5 ± 5	1558.2 ± 4.9	1537.7 ± 4.8
110000 kPa	–	–	–	–	–	–	1679 ± 5.2	1634 ± 5.1	1590.3 ± 5	1570 ± 4.9
120000 kPa	–	–	–	–	–	–	1708.5 ± 5.3	1663.9 ± 5.2	1621.1 ± 5.1	1600.8 ± 5
130000 kPa	–	–	–	–	–	–	1736.1 ± 5.4	1693 ± 5.3	1650.8 ± 5.2	1630.7 ± 5.1
140000 kPa	–	–	–	–	–	–	1763.4 ± 5.5	1720.3 ± 5.4	1679.1 ± 5.2	1660.1 ± 5.2
150000 kPa	–	–	–	–	–	–	1789.7 ± 5.6	1747.4 ± 5.4	1707.1 ± 5.3	1688 ± 5.3
170000 kPa	–	–	–	–	–	–	1840.9 ± 5.7	1799.1 ± 5.6	1759.8 ± 5.5	1740.7 ± 5.4
190000 kPa	–	–	–	–	–	–	1889.3 ± 5.8	1847.3 ± 5.7	1808.6 ± 5.6	1790 ± 5.6
210000 kPa	–	–	–	–	–	–	1935.4 ± 6	1894.7 ± 5.9	1855.8 ± 5.7	1838.1 ± 5.7
